{
  "source": "ChEMBL document CHEMBL1201862",
  "about": "“PubChem BioAssay data set” (2004)",
  "key": {"[1]": {"target": "DNA damage-inducible transcript 3 protein (Mus musculus, UniProt P35639)", "type": "functional, Cricetulus griseus"}, "X-box-binding protein 1": {"target": "X-box-binding protein 1 (Homo sapiens, UniProt P17861)", "type": "functional, Cricetulus griseus"}, "Genome polyprotein": {"target": "Genome polyprotein (dengue virus type 2, UniProt P29990)", "test": "flavivirus cap methylation enzyme inhibition – biochemical, confirmation dose response, primary screen (AID 588689)", "type": "functional"}, "[2]": {"target": "T1, Tyrosine-protein phosphatase non-receptor type 22 (Homo sapiens, UniProt Q9Y2R2)", "T1 sequence (Q9Y2R2 whole entry)": "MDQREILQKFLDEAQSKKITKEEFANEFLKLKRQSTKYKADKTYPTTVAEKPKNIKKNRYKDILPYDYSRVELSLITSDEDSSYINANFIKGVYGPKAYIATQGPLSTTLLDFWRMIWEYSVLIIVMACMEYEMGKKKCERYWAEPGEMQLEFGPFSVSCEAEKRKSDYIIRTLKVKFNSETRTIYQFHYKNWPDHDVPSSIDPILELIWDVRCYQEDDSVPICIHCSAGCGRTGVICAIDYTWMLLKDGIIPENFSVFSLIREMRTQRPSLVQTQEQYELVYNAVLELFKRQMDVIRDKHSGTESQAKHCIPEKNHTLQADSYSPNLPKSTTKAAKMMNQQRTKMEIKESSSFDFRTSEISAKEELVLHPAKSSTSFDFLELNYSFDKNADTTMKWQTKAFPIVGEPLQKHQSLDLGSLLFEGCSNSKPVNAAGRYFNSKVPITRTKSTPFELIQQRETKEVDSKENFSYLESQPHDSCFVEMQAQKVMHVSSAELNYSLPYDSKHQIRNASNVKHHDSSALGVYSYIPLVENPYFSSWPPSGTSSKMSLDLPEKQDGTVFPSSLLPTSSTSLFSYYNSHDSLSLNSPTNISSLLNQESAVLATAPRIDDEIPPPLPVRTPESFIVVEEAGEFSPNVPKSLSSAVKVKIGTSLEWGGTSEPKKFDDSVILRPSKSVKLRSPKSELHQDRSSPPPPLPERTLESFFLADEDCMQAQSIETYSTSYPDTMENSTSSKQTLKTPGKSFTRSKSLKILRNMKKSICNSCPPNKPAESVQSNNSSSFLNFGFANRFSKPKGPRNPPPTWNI", "test": "LYP1 Fluorescent Assay using OMFP substrate for In Vitro dose response studies. [Related pubchem assays (depositor defined):AID1779, AID1784, AID435024]"}, "[3]": {"target": "T2, Tyrosine-protein phosphatase non-receptor type 7 (Homo sapiens, UniProt P35236)", "T2 sequence (P35236 whole entry)": "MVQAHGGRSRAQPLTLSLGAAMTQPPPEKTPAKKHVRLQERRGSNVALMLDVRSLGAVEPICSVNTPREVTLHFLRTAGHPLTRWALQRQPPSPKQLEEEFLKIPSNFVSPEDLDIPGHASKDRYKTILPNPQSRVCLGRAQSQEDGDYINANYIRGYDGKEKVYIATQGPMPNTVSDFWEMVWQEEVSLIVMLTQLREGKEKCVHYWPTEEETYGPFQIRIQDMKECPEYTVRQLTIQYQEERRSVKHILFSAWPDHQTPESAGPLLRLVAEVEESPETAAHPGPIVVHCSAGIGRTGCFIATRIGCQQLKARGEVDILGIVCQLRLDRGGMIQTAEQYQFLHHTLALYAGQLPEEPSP", "type": "functional"}, "[4]": {"target": "T3, Voltage-gated N-type calcium channel alpha-1B subunit/Amyloid beta A4 precursor protein-binding family A member 1 (Homo sapiens, UniProt Q00975+Q02410)", "T3 sequence (Q00975 whole entry)": "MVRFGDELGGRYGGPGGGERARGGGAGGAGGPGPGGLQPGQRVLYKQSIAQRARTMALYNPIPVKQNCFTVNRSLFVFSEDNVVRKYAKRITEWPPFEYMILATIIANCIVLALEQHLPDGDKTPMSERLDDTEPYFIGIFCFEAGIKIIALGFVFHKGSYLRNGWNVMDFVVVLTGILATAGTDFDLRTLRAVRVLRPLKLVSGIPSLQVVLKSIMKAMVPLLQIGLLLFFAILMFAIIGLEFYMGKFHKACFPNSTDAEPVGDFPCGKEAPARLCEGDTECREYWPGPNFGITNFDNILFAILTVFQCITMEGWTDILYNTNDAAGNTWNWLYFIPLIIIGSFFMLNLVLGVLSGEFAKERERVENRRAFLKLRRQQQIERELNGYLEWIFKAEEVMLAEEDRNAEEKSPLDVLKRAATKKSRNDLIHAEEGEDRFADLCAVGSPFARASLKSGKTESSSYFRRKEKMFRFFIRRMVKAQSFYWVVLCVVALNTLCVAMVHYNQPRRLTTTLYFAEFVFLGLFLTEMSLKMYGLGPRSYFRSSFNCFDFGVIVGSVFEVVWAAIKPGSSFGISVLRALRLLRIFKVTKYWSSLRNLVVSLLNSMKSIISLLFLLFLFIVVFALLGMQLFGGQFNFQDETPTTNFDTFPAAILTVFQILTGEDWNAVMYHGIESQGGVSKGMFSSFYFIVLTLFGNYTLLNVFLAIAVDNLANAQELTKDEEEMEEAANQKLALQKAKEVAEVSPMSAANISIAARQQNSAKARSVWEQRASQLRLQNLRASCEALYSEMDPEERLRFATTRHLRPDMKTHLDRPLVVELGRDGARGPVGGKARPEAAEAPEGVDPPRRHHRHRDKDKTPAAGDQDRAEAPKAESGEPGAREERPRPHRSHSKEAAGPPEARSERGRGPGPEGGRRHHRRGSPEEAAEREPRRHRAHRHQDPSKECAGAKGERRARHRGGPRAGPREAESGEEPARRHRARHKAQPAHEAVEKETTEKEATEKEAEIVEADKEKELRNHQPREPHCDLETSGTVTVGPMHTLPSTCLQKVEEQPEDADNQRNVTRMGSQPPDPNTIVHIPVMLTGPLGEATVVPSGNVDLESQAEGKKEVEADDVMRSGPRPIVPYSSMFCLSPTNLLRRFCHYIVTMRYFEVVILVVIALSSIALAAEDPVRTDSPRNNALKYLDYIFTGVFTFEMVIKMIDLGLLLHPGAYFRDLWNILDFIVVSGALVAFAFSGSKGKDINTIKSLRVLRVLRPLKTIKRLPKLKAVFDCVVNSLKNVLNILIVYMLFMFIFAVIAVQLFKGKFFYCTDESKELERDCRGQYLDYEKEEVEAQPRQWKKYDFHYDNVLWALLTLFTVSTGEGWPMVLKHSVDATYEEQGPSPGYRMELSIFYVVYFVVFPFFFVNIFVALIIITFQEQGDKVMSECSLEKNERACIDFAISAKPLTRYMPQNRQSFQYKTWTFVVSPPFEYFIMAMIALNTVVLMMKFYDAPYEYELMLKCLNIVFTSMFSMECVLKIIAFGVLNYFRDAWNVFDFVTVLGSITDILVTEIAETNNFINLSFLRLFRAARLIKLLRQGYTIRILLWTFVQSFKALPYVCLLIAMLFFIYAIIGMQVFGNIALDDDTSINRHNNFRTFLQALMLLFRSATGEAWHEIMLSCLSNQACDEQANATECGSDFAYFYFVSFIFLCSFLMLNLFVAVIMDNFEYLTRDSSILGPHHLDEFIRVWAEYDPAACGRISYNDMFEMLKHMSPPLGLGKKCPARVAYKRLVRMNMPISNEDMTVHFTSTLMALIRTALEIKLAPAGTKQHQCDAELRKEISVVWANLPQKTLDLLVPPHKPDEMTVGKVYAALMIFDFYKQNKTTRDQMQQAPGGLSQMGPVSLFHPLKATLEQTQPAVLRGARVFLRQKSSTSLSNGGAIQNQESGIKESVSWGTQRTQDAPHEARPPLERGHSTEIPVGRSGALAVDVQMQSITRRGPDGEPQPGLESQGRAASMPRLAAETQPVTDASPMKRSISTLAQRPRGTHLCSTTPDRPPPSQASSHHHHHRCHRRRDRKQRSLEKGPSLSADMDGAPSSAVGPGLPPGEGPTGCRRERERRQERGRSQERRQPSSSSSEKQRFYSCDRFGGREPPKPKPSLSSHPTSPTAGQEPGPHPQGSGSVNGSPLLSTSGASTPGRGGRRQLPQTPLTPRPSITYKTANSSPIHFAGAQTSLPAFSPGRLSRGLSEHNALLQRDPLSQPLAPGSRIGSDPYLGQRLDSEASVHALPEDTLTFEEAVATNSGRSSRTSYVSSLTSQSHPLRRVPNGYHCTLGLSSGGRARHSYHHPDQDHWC", "T3 sequence (Q02410 whole entry)": "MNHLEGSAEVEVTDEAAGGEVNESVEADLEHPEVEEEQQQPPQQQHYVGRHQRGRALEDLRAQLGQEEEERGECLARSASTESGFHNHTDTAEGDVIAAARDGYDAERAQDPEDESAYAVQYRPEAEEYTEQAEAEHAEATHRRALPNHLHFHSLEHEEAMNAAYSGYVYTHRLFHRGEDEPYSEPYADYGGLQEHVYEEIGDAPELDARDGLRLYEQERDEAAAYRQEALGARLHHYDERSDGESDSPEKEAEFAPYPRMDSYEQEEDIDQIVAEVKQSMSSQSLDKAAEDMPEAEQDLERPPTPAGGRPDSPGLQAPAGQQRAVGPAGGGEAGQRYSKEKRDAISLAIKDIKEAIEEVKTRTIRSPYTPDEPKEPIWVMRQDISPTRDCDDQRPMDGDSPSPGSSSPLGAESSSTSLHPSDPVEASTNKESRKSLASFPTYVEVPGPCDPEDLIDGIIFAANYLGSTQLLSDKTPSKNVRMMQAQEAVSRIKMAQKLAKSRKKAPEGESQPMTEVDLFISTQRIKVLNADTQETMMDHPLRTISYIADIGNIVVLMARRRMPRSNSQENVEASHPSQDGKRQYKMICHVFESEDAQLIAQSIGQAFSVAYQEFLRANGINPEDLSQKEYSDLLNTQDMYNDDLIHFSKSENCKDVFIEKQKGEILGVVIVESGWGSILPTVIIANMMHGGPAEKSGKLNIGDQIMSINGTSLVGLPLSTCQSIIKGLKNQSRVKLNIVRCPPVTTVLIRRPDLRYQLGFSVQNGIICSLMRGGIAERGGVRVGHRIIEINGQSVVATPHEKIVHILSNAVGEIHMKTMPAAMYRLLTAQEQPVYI", "type": "protein assay"}, "[5]": {"target": "T2, Tyrosine-protein phosphatase non-receptor type 7", "test": "HTS HePTP Fluorescent Assay using OMFP substrate for In Vitro dose response studies. [Related pubchem assays (depositor defined):AID1059, AID1077, AID1784, AID2068, AID2085, AID435032, AID521]", "type": "functional"}, "[6]": {"target": "T3, Voltage-gated N-type calcium channel alpha-1B subunit/Amyloid beta A4 precursor protein-binding family A member 1", "type": "protein assay", "remark": "listed apart in the source"}, "[7]": {"target": "T1, Tyrosine-protein phosphatase non-receptor type 22", "test": "PTPN22 lymphoid phosphatase activity blockers – biochemical, fluorescence intensity, uHTS (AID 1779)"}, "[8]": {"target": "T1, Tyrosine-protein phosphatase non-receptor type 22", "test": "SAR LYP1 Fluorescent Assay using pCAP substrate for In Vitro dose response studies - Set 2. [Related pubchem assays (depositor defined):AID1779, AID1784, AID2135, AID449727]", "type": "functional"}, "[9]": {"target": "Tyrosine-protein phosphatase non-receptor type 12 (Homo sapiens, UniProt Q05209)", "sequence (Q05209 whole entry)": "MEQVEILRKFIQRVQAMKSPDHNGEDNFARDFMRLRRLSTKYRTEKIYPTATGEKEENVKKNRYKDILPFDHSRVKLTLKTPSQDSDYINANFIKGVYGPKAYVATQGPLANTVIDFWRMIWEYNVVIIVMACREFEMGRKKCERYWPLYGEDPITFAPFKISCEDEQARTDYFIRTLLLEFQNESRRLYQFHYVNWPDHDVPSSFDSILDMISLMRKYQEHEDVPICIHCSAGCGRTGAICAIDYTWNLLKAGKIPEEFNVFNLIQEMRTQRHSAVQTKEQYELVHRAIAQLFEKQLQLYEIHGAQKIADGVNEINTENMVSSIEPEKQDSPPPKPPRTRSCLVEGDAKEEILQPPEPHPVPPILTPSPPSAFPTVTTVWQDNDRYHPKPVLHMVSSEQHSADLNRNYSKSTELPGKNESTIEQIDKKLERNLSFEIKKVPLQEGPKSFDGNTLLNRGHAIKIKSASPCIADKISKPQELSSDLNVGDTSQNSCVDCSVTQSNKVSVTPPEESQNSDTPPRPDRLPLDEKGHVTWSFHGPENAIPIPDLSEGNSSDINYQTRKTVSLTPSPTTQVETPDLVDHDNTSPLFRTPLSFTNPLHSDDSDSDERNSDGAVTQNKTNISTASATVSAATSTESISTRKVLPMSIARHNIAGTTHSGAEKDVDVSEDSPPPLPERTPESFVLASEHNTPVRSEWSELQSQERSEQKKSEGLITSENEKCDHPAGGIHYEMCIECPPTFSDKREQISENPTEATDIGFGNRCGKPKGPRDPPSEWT", "test": "SAR Selectivity Analysis of small molecule inhibitors of PEST using pCAP in a fluorescence assay. [Related pubchem assays (depositor defined):AID1779, AID1784, AID2135]", "type": "functional"}, "[10]": {"target": "T1, Tyrosine-protein phosphatase non-receptor type 22", "type": "functional"}, "[11]": {"target": "T1, Tyrosine-protein phosphatase non-receptor type 22", "test": "SAR LYP1 Fluorescent Assay using OMFP substrate for In Vitro dose response studies - Set 3. [Related pubchem assays (depositor defined):AID1779, AID1784, AID2140, AID2686]", "type": "functional"}, "[12]": {"target": "T1, Tyrosine-protein phosphatase non-receptor type 22", "test": "inhibition of lymphoid tyrosine phosphatase LYP – biochemical, pCAP fluorogenic substrate, fluorescence, set 3, SAR follow-up (AID 449727)", "type": "functional"}, "[13]": {"target": "T1, Tyrosine-protein phosphatase non-receptor type 22", "type": "functional", "remark": "listed apart in the source"}, "[14]": {"target": "T1, Tyrosine-protein phosphatase non-receptor type 22", "test": "SAR LYP1 Fluorescent Assay using OMFP substrate for In Vitro dose response studies - Set 2. [Related pubchem assays (depositor defined):AID1779, AID1784, AID2140, AID449726, AID488869]", "type": "functional"}, "[15]": {"target": "DNA (cytosine-5)-methyltransferase 1 (Homo sapiens, UniProt P26358)", "test": "inhibition of DNA methylation by DNMT1 – biochemical, fluorescent molecular beacon, confirmation (AID 602386)", "type": "functional"}, "[16]": {"test": "Luminescence Cell-Based Dose Response HTS to Identify Inhibitors of Luciferase Translation or Activity in H4-C Neuroglioblastoma Cells. [Related pubchem assays: 1813 (Primary HTS), 1827 (Project Summary)]", "type": "functional"}, "[17]": {"test": "Luminescence Cell-Based Dose Response HTS to Identify Activators of Luciferase Translation or Activity in H4-C Neuroglioblastoma Cells. [Related pubchem assays: 1829 (Project Summary), 1814 (Primary HTS)]", "type": "functional"}, "[18]": {"test": "Luminescence Cell-Based Dose Retest to Confirm Activators of 5'UTR Stem-Loop Driven Alpha-Synuclein mRNA Translation in H4 Neuroglioblastoma Cells. [Related pubchem assays (depositor defined):AID1813, AID1829]", "type": "functional"}, "[19]": {"test": "Luminescence Cell-Based Dose Response HTS to Identify Activators of 5'UTR Stem-Loop Driven Prion Protein mRNA Translation in H4-C Neuroglioblastoma Cells. [Related pubchem assays: 1829 (Project Summary), 1814 (Primary HTS)]", "type": "functional"}, "[20]": {"test": "Luminescence Cell-Based Dose HTS Response to Identify Inhibitors of 5'UTR Stem-Loop Driven Prion Protein mRNA Translation in H4-C Neuroglioblastoma Cells. [Related pubchem assays (depositor defined):AID1814, AID1827]", "type": "functional"}, "[21]": {"test": "Luminescence Cell-Based Dose Confirmation HTS to Identify Inhibitors of 5'UTR Stem-Loop Driven Alpha-Synuclein mRNA Translation in H4 Neuroglioblastoma Cells. [Related pubchem assays: 1827 (Project Summary), 1813 (Primary HTS)]", "type": "functional"}, "Salmon testes DNA": {"tested_on": "Salmon testes DNA", "test": "acridine orange-DNA binding displacement – biochemical, fluorescence polarization, cherry-picked samples, set 2, artefact control for KSHV LANA DNA-binding inhibitor project, dose response (AID 504727)", "set-up": "species or system Salmonidae"}, "ORF 73": {"target": "ORF 73 (Human herpesvirus 8, UniProt O40947)", "sequence (O40947 whole entry)": "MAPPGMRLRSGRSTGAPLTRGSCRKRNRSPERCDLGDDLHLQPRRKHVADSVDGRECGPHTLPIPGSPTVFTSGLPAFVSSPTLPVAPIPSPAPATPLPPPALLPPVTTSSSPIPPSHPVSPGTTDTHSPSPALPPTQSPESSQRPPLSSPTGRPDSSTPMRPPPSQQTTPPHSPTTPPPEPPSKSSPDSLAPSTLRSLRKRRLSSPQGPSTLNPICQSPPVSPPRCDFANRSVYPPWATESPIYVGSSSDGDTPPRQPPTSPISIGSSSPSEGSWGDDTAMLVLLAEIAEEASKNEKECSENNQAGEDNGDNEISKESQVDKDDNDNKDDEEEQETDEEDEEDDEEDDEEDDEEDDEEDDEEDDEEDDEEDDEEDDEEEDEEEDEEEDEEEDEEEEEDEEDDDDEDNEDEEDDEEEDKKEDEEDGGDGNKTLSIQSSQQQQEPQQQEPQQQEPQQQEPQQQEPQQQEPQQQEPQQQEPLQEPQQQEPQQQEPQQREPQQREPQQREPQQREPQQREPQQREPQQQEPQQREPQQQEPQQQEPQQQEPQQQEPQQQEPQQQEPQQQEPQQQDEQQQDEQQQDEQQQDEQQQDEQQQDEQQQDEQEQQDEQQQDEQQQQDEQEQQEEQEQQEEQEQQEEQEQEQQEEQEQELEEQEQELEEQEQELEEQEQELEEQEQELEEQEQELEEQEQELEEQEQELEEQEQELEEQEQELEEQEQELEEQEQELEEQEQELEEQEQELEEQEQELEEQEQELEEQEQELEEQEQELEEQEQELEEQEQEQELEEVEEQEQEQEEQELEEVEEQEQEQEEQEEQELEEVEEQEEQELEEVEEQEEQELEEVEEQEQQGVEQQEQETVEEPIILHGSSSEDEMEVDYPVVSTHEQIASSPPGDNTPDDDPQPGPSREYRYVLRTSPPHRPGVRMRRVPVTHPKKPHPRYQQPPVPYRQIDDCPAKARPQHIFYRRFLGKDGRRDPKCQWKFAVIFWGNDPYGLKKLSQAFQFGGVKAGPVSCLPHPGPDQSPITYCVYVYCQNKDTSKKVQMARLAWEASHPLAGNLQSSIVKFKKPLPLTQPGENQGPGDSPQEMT", "test": "KSHV LANA DNA-binding disruption – biochemical, fluorescence polarization, cherry-picked samples, dose response (AID 504725);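 further: fluorescence polarization of a labeled DNA duplex reporting LANA DNA binding; potency is for inhibitors that block LANA binding to the DNA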", "set-up": "species or system Human gammaherpesvirus 8"}, "[22]": {"test": "compound autofluorescence in calcium buffer – biochemical, fluorescence, no RTF in test wells, artefact control for cardiac thin filament activator project, dose response (AID 504697)"}, "Troponin, cardiac muscle": {"target": "Troponin, cardiac muscle (Homo sapiens, UniProt P19429+P45379+P63316)", "test": "Fluorescence-based biochemical high throughput dose response assay for activators of the calcium sensitivity of cardiac Regulated Thin Filaments (RTF). [Related pubchem assays (depositor defined):AID493008, AID493018, AID504382, AID504383]", "type": "protein-complex assay"}, "Keap1/Nrf2": {"target": "Keap1/Nrf2 (Homo sapiens, UniProt Q14145)", "test": "disruptors of Keap1 binding to Nrf2 peptide – biochemical, fluorescence polarization, cherry-picked samples, dose response (AID 588683)"}},
  "note": "The source made the active and inactive calls.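 Wherever Absolute IC50 (XBP1) is given: confirmatory dose-response counter-screen serving a CHOP assay.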",
  "data": [
    {"compound": "Nc1cccc2c1C(=O)N(C(=O)/C=C/c1cccc(F)c1)C2=O", "values": [
      {"measurement": "Absolute IC50 (CHOP)", "setting": "[1]", "result": "< 10", "unit": "µM"},
      {"measurement": "Absolute IC50 (XBP1)", "setting": "X-box-binding protein 1", "result": 10, "unit": "µM"},
      {"measurement": "IC50", "setting": "Genome polyprotein", "result": "> 100 µM (active)"}
    ]},
    {"compound": "CCOc1cc(/C=C(\\C#N)C(=O)Nc2cccc(C(=O)O)c2)ccc1OCc1ccc(Br)cc1", "values": [
      {"measurement": "IC50", "setting": "[2]", "result": "1.3 µM (active)"},
      {"measurement": "IC50", "setting": "[3]", "result": "2.41 µM (active)"},
      {"measurement": "IC50", "setting": "[4]", "result": "44.3 µM (active)"},
      {"measurement": "IC50", "setting": "[5]", "result": "4.94 µM (active)"},
      {"measurement": "IC50", "setting": "[6]", "result": "> 50 µM (inactive)"},
      {"measurement": "IC50", "setting": "[7]", "result": "3.97 µM (active)"},
      {"measurement": "IC50", "setting": "[8]", "result": "1.86 µM (active)"},
      {"measurement": "IC50", "setting": "[9]", "result": "0.471 µM (active)"},
      {"measurement": "IC50", "setting": "[10]", "result": "3.78 µM (active)"},
      {"measurement": "IC50", "setting": "[11]", "result": "0.775 µM (active)"},
      {"measurement": "IC50", "setting": "[12]", "result": "1.74 µM (active)"},
      {"measurement": "IC50", "setting": "[13]", "result": "< 1.24 µM (active)"},
      {"measurement": "IC50", "setting": "[14]", "result": "1.54 µM (active)"},
      {"measurement": "IC50", "setting": "[15]", "result": "5.4 µM (active)"}
    ]},
    {"compound": "COc1ccc2c(c1)sc(N)[n+]2Cc1cc(C)cc2cccnc12", "values": [
      {"measurement": "EC50", "setting": "[16]", "result": "10.3 µM (active)"},
      {"measurement": "EC50", "setting": "[17]", "result": "10.3 µM (inconclusive)"},
      {"measurement": "EC50", "setting": "[18]", "result": "6.36 µM (inconclusive)"},
      {"measurement": "EC50", "setting": "[19]", "result": "0.711 µM (inconclusive)"},
      {"measurement": "EC50", "setting": "[20]", "result": "0.711 µM (active)"},
      {"measurement": "EC50", "setting": "[21]", "result": "6.36 µM (active)"}
    ]},
    {"compound": "CN1CC=C2C(C#N)=C(N)C(C#N)(C#N)[C@H](c3ccoc3)[C@H]2C1", "values": [
      {"measurement": "AC50", "setting": "Salmon testes DNA", "result": "79 µM (active)"},
      {"measurement": "AC50", "setting": "ORF 73", "result": "58.9 µM (active)"},
      {"measurement": "EC50", "setting": "[22]", "result": "> 7.94 µM (active)"},
      {"measurement": "EC50", "setting": "Troponin, cardiac muscle", "result": "8.32 µM (active)"},
      {"measurement": "AC50", "setting": "Keap1/Nrf2", "result": "47.9 µM (active)"}
    ]}
  ]
}
